How the values were obtained:
[1] = HPLC-MS/MS quantification of 9 compounds in plasma of RSV-infected mice after Scutellaria baicalensis Georgi administration; format: in vivo, BALB/c mice; design: drug-containing plasma content: unit not given here; settings: for time of highest plasma concentration, first peak / time of highest plasma concentration, second peak: RSV-infected mice after Scutellaria baicalensis Georgi administration, double peak phenomenon; for drug-containing plasma content: RSV-infected mice, mean ± SD, n = 6
Experimental: The study employed a Vanquish high-performance liquid chromatograph for chromatographic separation, with a HALO C18 column (2.1 × 100 mm, 2.7 μm) as the chromatographic column.
Mass spectrometry was performed using a quadrupole-electrostatic field orbitrap desktop mass spectrometer equipped with an electrospray ion source (ESI). The ESI parameters were set as follows: the pyrolysis voltage was 3.0 kV, the auxiliary gas flow rate was 10 mL/min, the ion transport tube temperature was 350 °C, the auxiliary gas temperature was 350 °C, and the sheath gas flow rate was 45 L/min. Quantitative analysis was performed using the selective ion detection (SIM) mode (Table S1).
Male BALB/c mice, aged 2 weeks and weighing 10–12 g, were chosen for this study. They were acclimatized for 2 days and then randomly assigned to one of five groups: blank (C), model (M), positive control ribavirin (Y1), positive control lianhua qingwen granules (Y2), and Scutellaria baicalensis Georgi administration (H1-H12). Each group consisted of six mice, and their weights were recorded. The mice were pre-administered for 2 days, and on the third day, RSV virus (TCID50 = 10^−6) was inoculated through intranasal infection at a volume of 35 μL per mouse. The blank group was inoculated with normal saline of the same volume. After the inoculation of the RSV virus, the blank and model groups were given distilled water by gavage, while the drug-administered groups were given an aqueous extract of Scutellaria baicalensis Georgi (10 µL/g) once a day for 3 days. The mice were observed daily for their mental status, hair color, diet, and body weight. […] It was then centrifuged at 3000 r/min for 10 min, and the upper layer of plasma was stored at −80℃. Lung tissues were weighed, the lung index was calculated, and the lung tissues were stored in the refrigerator at −80 °C for freezing.
The plasma sample (200 μL) was processed in a 5 mL tube. Subsequently, 10 μL of 5% formic acid and 20 μL of 2 mol/L hydrochloric acid were added, followed by vortexing for 1 min with 10 μL of internal standard solution (100 ng/mL tinidazole). The extraction was completed by adding 2000 μL of acetonitrile solvent and vortexing for 2 min. The mixture was then centrifuged at 12,000 r/min at 4 °C for 10 min, and the supernatant solution was collected in a new centrifuge tube. The supernatant solution was dried by nitrogen at room temperature before being redissolved in 50 μL of 70% acetonitrile solution containing 0.1% formic acid. After vortexing for 1 min, the solution was centrifuged at 12,000 r/min at 4 °C for 10 min, and the resulting supernatant was injected for analysis. The injection volume was 3 μL.
The drug-containing plasma at different time points was subjected to sample treatment. The HPLC-MS/MS analysis method was used to quantitatively detect the 9 compounds in the ion detection (SIM) mode. According to the relative peak area value = index peak area/internal standard peak area, the corresponding concentration value was calculated by substituting the standard curve of each component.

[2] = Stability of 9 compounds in mouse plasma under storage conditions; format: in vitro ADME; settings: n = 6; for Stability 3-Freeze-Thaw Cycles RE: 3 times repeated freeze-thaw at −80 °C; for Stability Short-Term RE: 12 h at 4 °C; for Stability Long-Term RE: −20 °C for 20 days
[3] = system: respiratory syncytial virus (RSV); assay: Lung index and lung index repair rate in RSV-infected mice; format: in vivo; settings: positive control groups
Experimental: (§1) Male BALB/c mice, aged 2 weeks and weighing 10–12 g, were chosen for this study. They were acclimatized for 2 days and then randomly assigned to one of five groups: blank (C), model (M), positive control ribavirin (Y1), positive control lianhua qingwen granules (Y2), and Scutellaria baicalensis Georgi administration (H1-H12). Each group consisted of six mice, and their weights were recorded. The mice were pre-administered for 2 days, and on the third day, RSV virus (TCID50 = 10^−6) was inoculated through intranasal infection at a volume of 35 μL per mouse. The blank group was inoculated with normal saline of the same volume. After the inoculation of the RSV virus, the blank and model groups were given distilled water by gavage, while the drug-administered groups were given an aqueous extract of Scutellaria baicalensis Georgi (10 µL/g) once a day for 3 days. The mice were observed daily for their mental status, hair color, diet, and body weight. […] Lung tissues were weighed, the lung index was calculated, and the lung tissues were stored in the refrigerator at −80 °C for freezing.
Based on the recorded body weight and lung tissue weight of mice in the blank, model, positive control, and administration groups, the lung index and lung index repair rate were calculated for each group. […]

[4] = system: respiratory syncytial virus (RSV); assay: Lung tissue viral load (RSV-F real-time PCR) and inhibition rate in RSV-infected mice; format: in vivo; settings: positive control groups
Experimental: as §1, with “volume.” for “volume. After the inoculation of the RSV virus, the blank and model groups were given distilled water by gavage, while the drug-administered groups were given an aqueous extract of Scutellaria baicalensis Georgi (10 µL/g) once a day for 3 days. The mice were observed daily for their mental status, hair color, diet, and body weight.”
The F protein is a RSV-specific protein, so it can be used as a PCR gene indicator to indicate the viral load of lung tissue. […] After quantification, the RNA was reverse transcribed into cDNA, and the SYBR Green Master Mix reagent was used as the reaction system. […] The viral load inhibition rate was calculated using the 2^−ΔΔCt formula, and a graph depicting the change in lung tissue viral load over time was plotted, with time as the abscissa and lung tissue viral load as the ordinate. […]

[5] = 0.083 h after last gavage of Scutellaria baicalensis Georgi extract
[6] = 0.167 h after last gavage of Scutellaria baicalensis Georgi extract
[7] = 0.25 h after last gavage of Scutellaria baicalensis Georgi extract
[8] = 0.5 h after last gavage of Scutellaria baicalensis Georgi extract
[9] = 1 h after last gavage of Scutellaria baicalensis Georgi extract
[10] = 2 h after last gavage of Scutellaria baicalensis Georgi extract
[11] = 4 h after last gavage of Scutellaria baicalensis Georgi extract
[12] = 6 h after last gavage of Scutellaria baicalensis Georgi extract
[13] = 8 h after last gavage of Scutellaria baicalensis Georgi extract
[14] = 10 h after last gavage of Scutellaria baicalensis Georgi extract
[15] = 12 h after last gavage of Scutellaria baicalensis Georgi extract
[16] = 24 h after last gavage of Scutellaria baicalensis Georgi extract
[17] = high QC (20,000 or 10,000 ng/mL)

| Structure (SMILES) | time of highest plasma concentration, first peak [1] | time of highest plasma concentration, second peak [1] | drug-containing plasma content [1, 5] | drug-containing plasma content [1, 6] | drug-containing plasma content [1, 7] | drug-containing plasma content [1, 8] | drug-containing plasma content [1, 9] | drug-containing plasma content [1, 10] | drug-containing plasma content [1, 11] | drug-containing plasma content [1, 12] | drug-containing plasma content [1, 13] | drug-containing plasma content [1, 14] | drug-containing plasma content [1, 15] | drug-containing plasma content [1, 16] | Stability 3-Freeze-Thaw Cycles RE [2, 17] | Stability 3-Freeze-Thaw Cycles RE ([2]; low QC (12.5 or 25.6 ng/mL)) | Stability 3-Freeze-Thaw Cycles RE ([2]; medium QC (320 or 160 ng/mL)) | Stability Short-Term RE [2, 17] | Stability Short-Term RE ([2]; low QC (12.5 or 25.6 ng/mL)) | Stability Short-Term RE ([2]; medium QC (320 or 160 ng/mL)) | also measured |
| --- | --- | --- | --- | --- | --- | --- | --- | --- | --- | --- | --- | --- | --- | --- | --- | --- | --- | --- | --- | --- | --- |
| COc1c(OC2OC(C(=O)O)C(O)C(O)C2O)cc2oc(-c3ccccc3)cc(=O)c2c1O [Oroxylin A 7-O-beta-D-glucuronide] | 0.167 h | 6 h | 462.93± 10.74 | 603.78± 13.98 | 143.83± 6.73 | 315.26± 12.78 | 138.74± 3.62 | 315.26± 12.78 | 412.32± 18.42 | 1008.71± 54.19 | 286.84± 8.27 | 160.51± 5.17 | 29.40± 0.71 | 0 | −0.56% | 6.23% | 3.08% | −0.23% | 7.34% | 1.89% | Stability Long-Term RE [2, 17]: 0.55%; Stability Long-Term RE ([2]; low QC (12.5 or 25.6 ng/mL)): 7.73%; Stability Long-Term RE ([2]; medium QC (320 or 160 ng/mL)): 2.21% |
| COc1c(O)cc2oc(-c3ccccc3)cc(=O)c2c1O [Oroxylin A] | 0.167 h | 6 h | 13.47± 9.43 | 745.77± 35.54 | 63.52± 1.32 | 40.44± 4.81 | 160.88± 15.86 | 75.84± 5.43 | 486.23± 8.65 | 1063.52± 101.32 | 300.68± 17.25 | 19.18± 2.56 | 13.60± 7.94 | 0 | −5.29% | −4.26% | −8.41% | −4.07% | −3.30% | −5.14% | Stability Long-Term RE [2, 17]: −7.03%; Stability Long-Term RE ([2]; low QC (12.5 or 25.6 ng/mL)): −6.71%; Stability Long-Term RE ([2]; medium QC (320 or 160 ng/mL)): −5.78% |
| COc1c(O[C@@H]2O[C@H](C(=O)O)[C@@H](O)[C@H](O)[C@H]2O)cc(O)c2c(=O)cc(-c3ccccc3)oc12 [Wogonoside] | 0.167 h | 6 h | 553.37± 9.22 | 1829.58± 102.08 | 928.49± 33.77 | 776.20± 41.04 | 1078.05± 63.01 | 1333.51± 38.28 | 1372.78± 53.34 | 3829.58± 182.08 | 1825.89± 177.13 | 318.50± 23.92 | 188.85± 19.38 | 0 | 1.79% | −8.61% | 0.60% | 3.40% | −3.08% | −1.39% | Stability Long-Term RE [2, 17]: 3.40%; Stability Long-Term RE ([2]; low QC (12.5 or 25.6 ng/mL)): −2.30%; Stability Long-Term RE ([2]; medium QC (320 or 160 ng/mL)): −2.01% |
| NC(=O)c1ncn([C@@H]2O[C@H](CO)[C@@H](O)[C@H]2O)n1 [Y1, ribavirin] | – | – | – | – | – | – | – | – | – | – | – | – | – | – | – | – | – | – | – | – | Repair Rate (lung index) [3]: 58.33%; Lung Index ([3]; mean ± SD, n = 6): 0.85 ± 0.08 %; Inhibitory Rates (viral load) [4]: 61.26%; Viral Load ([4]; mean ± SD, n = 6): 2.27 ± 0.37 ×10^5 Copies/Ml |

Source: publication PMC10460054, “Multiplex Quantitative Analysis of 9 Compounds of Scutellaria baicalensis Georgi in the Plasma of Respiratory Syncytial Virus-Infected Mice Based on HPLC-MS/MS and Pharmacodynamic Effect Correlation Analysis” (Molecules, 2023)
